Reference: patent US5169850A, “N-(dialkylamino)methylene)-substituted pyrazolo(1,5-a)-pyrimidine-3-carboxamides and N-(dialkylamino)methylene-substituted-4,5-dihydropyrazolo-(1,5-a)-pyrimi dine-3-carboxamides” (American Cyanamid Company, priority 1991, dated 1992)
“And” between values parts separate entries of the source, which are not always exact repeats. Equal entries are not always repeated.

Assays:
[1] = Conflict procedure (non-conditioned passive avoidance); assay type: in vivo, Wistar strain rats; conditions: 25 mg/kg oral, 60 min before test
Description: Another test used to assess anti-anxiety effects is a non-conditioned passive avoidance procedure described by J. R. Vogel, G. Beer and D. E. Clody, "A Simple and Reliable Conflict Procedure for Testing Antianxiety Agents", Psychopharmacologia, 21, 1-7 (1971). A conflict situation was induced in rats by a modification of this method.
Groups of 8 naive, Wistar strain rats, weighing 200-240 g each, were deprived of water for 48 hours. The test compounds were administered in single or graded, oral doses, suspended in 2 percent starch with […] polyethylene glycol in distilled water and one drop of Polysorbate 80. Control animals received the vehicle alone. At 60 minutes each rat was placed in an individual clear plastic chamber. Tap water was available ad libitum from a nipple located in a black box off the main chamber. A 0.7 milliampere AC shocking current was established between the stainless steel grid floor and the tap. After 20 licks of non-shocked drinking, a 2 second shocking current was administered to the rat. This ratio of 20 licks of non-shocked drinking followed by a 2 second shock was continued for a total of 3 minutes. The number of shocks taken by each rat during the 3 minute interval was recorded and compared to a control group. […]

[2] = Protection against clonic seizures caused by pentylenetetrazole; assay type: in vivo, rats; conditions: orally or intraperitoneally, pentylenetetrazole 23 mg/kg i.v. at 30 or 60 min
Description: The anti-anxiety properties of the novel compounds of the present invention have been established in a test which indicates anxiolytic activity by the measure of protection from convulsions resulting from the administration of pentylenetetrazole. Single or graded dose levels of the test compounds were administered orally or intraperitoneally in a 2 percent starch vehicle containing 0.5 percent v/v polyethylene glycol and one drop of Polysorbate 80, or distilled water and one drop of Polysorbate 80 to groups of at least four rats. At 30 or 60 minutes, the rats were treated intravenously with pentylenetetrazole at a dose of 23 mg/kg of body weight. This dose is estimated to cause clonic seizures in 99 percent of unprotected rats. The test compounds are considered active if they protect 50 percent or more of the rats from clonic seizures.
It has been reported (R. T. Hill and D. H. Tedeschi, "Animal Testing and Screening Procedures in Evaluating Psychotropic Drugs" in "An Introduction to Psychopharmacology", pp 237-288 (Eds. R. R. Rech and K. E. Moore, Raven Press, New York, 1971)) that there is a high degree of correlation between antagonism of pentylenetetrazole seizures in rats and anti-anxiety effects in higher warm-blooded animals.

## CN(C)C=NC(=O)c1cnn2c1NCC=C2c1cccc(C(F)(F)F)c1 [N-((Dimethylamino)methylene)-4,5-dihydro-7-(3-(trifluoromethyl)phenylpyrazolo(1,5-a)-pyrimidine-3-carboxamide]
[1]
  Result (no. of shocks per 3 min.): 22.9 no. of shocks per 3 min.
[2]; 12.5 mg/kg
  % of Rats Protected: 88%
[2]; 25 mg/kg
  % of Rats Protected: 75% and 88%
